In US20070009961A1, “Identification of targeting component of herbal medicines from simplified HPLC spectrum using after flowing through immobilized receptor (AFTIR) method” (Academia Sinica, priority 2005, published 2007):
Read-outs that look alike come from different tables or passages of the source.

What was measured:
[1] = target: T1, CD28-mulg (extracellular domain of human CD28 fused to murine IgG2a Fc), immobilized on CM5 chip (Homo sapiens, UniProt P10747); experiment: Surface plasmon resonance (BIAcore) binding to chip immobilised CD28 / AFTIR
T1 construct: soluble fusion protein consisting of the extracellular (134 aa) domain of human CD28; purchased ID Labs Inc; host or cells: CHO transfectants
Text: Receptors and proteins. Human CD28-mulg and CD80-mulg fusion proteins were purchased from ID Labs Inc. CD28-mulg is a soluble fusion protein consisting of the extracellular (134 aa) domain of human CD28 fused to murine IgG2a Fc (233 aa). CD80-mulg is a soluble fusion protein consisting of the extracellular (173 aa) domain of human CD80 fused to murine IgG2a Fc (232 aa). Both were purified from tissue culture supernatant of CHO transfectants by protein A and size exclusion chromatography. Anti-human CD28 antibody and anti-human CD3 antibody were purchased from BioLegend. In the experiments, the quantity of anti-CD28 and CD80 used is only around 2% the quantity of CD28 immobilized.
Surface plasmon resonance analysis. BIAcore 3000 (Biacore, Uppsala, Sweden) was employed for real-time biospecific interaction analysis. Binding analysis was performed at 25° C. with a flow rate of 10 μl/min. In general, proteins can be immobilized on the layer of carboxylated dextran in CM5 sensor chip (research grade; Biacore) by amine coupling. With each injection, samples were diluted in the running buffer HBS (10 mM HEPES, pH 7.4, 150 mM NaCl, 3.4 mM EDTA, 0.005% surfactant P20) to a final concentration of 15 to 30 μM. After each injection, flow-cell can be regenerated by flowing though the cell with the buffer containing 50 mM NaOH. Extracts were injected at different concentrations from 1.9 μM to 60 μM. The binding constant between immobilized receptor (imm-CD28) and ligand was determined using BIAevaluation 3.1 software (Biacore).
CD28-mulg, a soluble fusion protein consisting of the extracellular (134 aa) domain of human CD28 fused to murine IgG2a Fc (233 aa), was immobilized to dextran matrix on the sensor chip surface, via covalent coupling of primary amines (—NH2). In this report, the term CD28 will be used as shorthand for CD28-mulg. […]
The RU as shown in FIGS. 5b-5d is the actual RU subtracted by the “background RU”. […] Affinity binding constants (1/KD) can be obtained from KD, where KD is calculated from Scatchard plots. […]

[2] = tested on: CD28 dependent IL-2 expression in Jurkat cells; experiment: Jurkat T-cell IL-2 secretion (ELISA), CD28-dependent stimulation (anti-CD3 plus anti-CD28); format: cell-based, human
Description: Stimulation of T-cell. Jurkat leukemic T cells were maintained in a humidified atmosphere of 5% CO2/95% air at 37° C. in RPMI-1640 medium (HyClone, Utah, USA) including penicillin, streptomycin and 10% heat-inactivated FBS. Two modes of activations were used for the present experiments: anti-CD3 plus anti-CD28 (CD28-dependent stimulation) and PMA plus ionomycin (CD28-independent stimulation). For experiment of CD28-dependant stimulation, flat-bottom 96-well plates were coated with 10 μg/ml of anti-CD3 for 24 h at 4° C. Wells anti-CD3 were washed twice with PBS. After washing, the unbounded anti-CD3 was removed. Jurkat T-cells (200 μl 2×10^6 cells/ml) with soluble anti-CD28 (1 μg/ml) were then added into the wells. The cells were activated by anti-CD3 already existing in the wells. Upon the activation, the cell solution was stayed for 24 h. The supernatant (100 μl) of cell solution was then used for the measurement of IL-2 by enzyme-linked immuno-sorbent assay (ELISA). For experiment of CD28-indepentant stimulation, 200 μl Jurkat cell (5×10^5 cell/ml) were incubated with PMA (50 nM)/lonomycin (1 μg/ml) for 24 h. 100 μl supernatant was then used for IL-2 measurement by ELISA. […] The culture supernatants in both modes were harvested after 24h incubation and then used for the measurements of IL-2. IL-2 measurement was done using the commercial available ELISA kit (Biosource; California, US). The details how to measure the concentration of IL-2 after T-cell is activated is shown below. IL-2 ELISA assay. IL-2 concentration of T-cell was determined by following the instruction from manufacturer (Biosource; California, US). A 96-well flat-bottom plate was coated with anti-IL-2 mAb (100 μl at 4 μg/ml) in phosphate-buffered saline (PBS; pH 7.3) at room temperature overnight. The plate was then washed with PBS containing 0.05% Tween 20 (PBS-T) three times. Subsequently, the plate was incubated with a blocking solution containing 1% bovine serum albumin in PBS for more than 1 hr. After washing by PBS-T, 100 μl supernatant mixed with biotinylated anti-IL-2 detection antibodies (50 μl at 12.5 ng/ml) was added into each well and stay for 2 hr. After washing, 100 μl streptavidin horseradish peroxidase (1/2000 dilution of a 1.25 mg/ml solution) was added and the solution was incubated for 30 min at room temperature. After washing, 100 μl substrate solution containing 1/1 mixture of H2O2 and tetramethylbenzidine was added and the solution was incubated for 25min at room temperature. The solution reaction involving the stimulated sample was ceased by the addition of 100 μl stop solution (1M H2SO4). Concentration of IL-2 was then measured with microplate reader. The amount of IL-2 was indicated by the relative percentage ([…] of IL-2 is defined as 100%). […]

[3] = tested on: CD28-independent IL-2 response of Jurkat cells; experiment: Jurkat T-cell IL-2 secretion (ELISA), CD28-independent stimulation (PMA plus ionomycin); format: cell-based, human
Description: Stimulation of T-cell. Jurkat leukemic T cells were maintained in a humidified atmosphere of 5% CO2/95% air at 37° C. in RPMI-1640 medium (HyClone, Utah, USA) including penicillin, streptomycin and 10% heat-inactivated FBS. Two modes of activations were used for the present experiments: anti-CD3 plus anti-CD28 (CD28-dependent stimulation) and PMA plus ionomycin (CD28-independent stimulation). For experiment of CD28-dependant stimulation, flat-bottom 96-well plates were coated with 10 μg/ml of anti-CD3 for 24 h at 4° C. Wells anti-CD3 were washed twice with PBS. After washing, the unbounded anti-CD3 was removed. Jurkat T-cells (200 μl 2×10^6 cells/ml) with soluble anti-CD28 (1 μg/ml) were then added into the wells. The cells were activated by anti-CD3 already existing in the wells. Upon the activation, the cell solution was stayed for 24 h. The supernatant (100 μl) of cell solution was then used for the measurement of IL-2 by enzyme-linked immuno-sorbent assay (ELISA). For experiment of CD28-indepentant stimulation, 200 μl Jurkat cell (5×10^5 cell/ml) were incubated with PMA (50 nM)/lonomycin (1 μg/ml) for 24 h. 100 μl supernatant was then used for IL-2 measurement by ELISA. […] IL-2 concentration of T-cell was determined by following the instruction from manufacturer (Biosource; California, US). […] Concentration of IL-2 was then measured with microplate reader. […]

[4] = target: T2, CD28-mulg, soluble fusion protein consisting of the extracellular (134 aa) domain of human CD28 fused to … (human; murine, UniProt P10747 19-152); experiment: SPR, CD28-mulg on CM5 chip
T2 construct: extracellular domain; Bought from ID Labs Inc; purified from CHO transfectant supernatant; Coupled by primary amines to a CM5 sensor chip in all assays; also called imm-CD28; immobilized CD28; not shown: murine IgG2a Fc (233 aa)

O=C(/C=C/c1ccc(O)c(O)c1)O[C@@H]1C[C@](O)(C(=O)O)C[C@@H](O)[C@H]1O [C1, chlorogenic acid (5-O-caffeoylquinic acid)]
ability to bind CD28 (peak in HPLC profile after AFTIR) ([1]; bound CEE washed off the chip and profiled with HPLC): can bind CD28
effect on IL-2 response (in words) [2]: linearly reduces IL-2 response
effect on IL-2 response (in words) ([2]; listed as Chlorogenic acid): downregulates CD28 dependent interleukin-2 (IL-2) expression
effect on IL-2 response (in words) ([2]; listed as chlorogenic acid): downregulating CD28 dependent IL-2 expression
downregulation of IL-2 secretion response ([2]; normalized to 100%): −53%
effect on IL-2 response (in words) [3]: unable to modulate

CD80: soluble fusion protein: extracellular (173 aa) domain of human CD80 fused to murine IgG2a Fc
binding efficiency [1]: > 90%
binding capacity ΔR on immobilised CD28 ([1]; SPR, 10 μg/ml ligand): ~120 RU

B1: CD80-mulg, soluble fusion protein consisting of the extracellular (173 aa) domain of human CD80 fused to murine IgG2a Fc (232 aa) (Fc fusion, UniProt P33681 35-242, looked up)
chain: VIHVTKEVKEVATLSCGHNVSVEELAQTRIYWQKEKKMVLTMMSGDMNIWPEYKNRTIFDITNNLSIVILALRPSDEGTYECVVLKYEKDAFKREHLAEVTLSVKADFPTPSISDFEIPTSNIRRIICSTSGGFPEPHLSWLENGEELNAINTTVSQDPETELYAVSSKLDFNMTTNHSFMCLIKYGHLRVNQTFNWNTTKQEHFPDN
notes: extracellular domain; Bought from ID Labs Inc; purified from CHO transfectant supernatant; Used as the soluble analyte in SPR; also called Human CD80-mulg; not shown: murine IgG2a Fc (232 aa)
ratio of binding receptor:ligand (mole:mole) [4]: ~0.92 mole CD80 per mole imm-CD28
